Values of other authors as cited in patent publication US20190321427A1, “Compositions to Treat Anal Fissures” (G&S Laboratories, Inc., priority 2018, published 2019).
Read-outs that look alike come from different tables or passages of the source.

Tested on: anal fissures

| Compound | healing rates (in vivo) | healing rates (anal fissure, literature (Poh, 2010)) | common side effect (topical treatment of anal fissure) |
| --- | --- | --- | --- |
| botulinum toxin | 30-96% | – | – |
| O=[N+]([O-])OCC(CO[N+](=O)[O-])O[N+](=O)[O-] [nitroglycerin] | – | 40-70% | headache |
